Data: patent US8309790B2, “Animal models for demyelination disorders” (University of Chicago, priority 2005, dated 2012)

What was measured:
[1] = tested on: ER stress markers BIP, CHOP, p-eIF-2α; assay: ER stress markers in the corpus callosum of cuprizone treated mice expressing IFN-γ; type: in vivo
Procedure: Repression of remyelination by IFN-γ is associated with ER stress. […] To determine whether IFN-γ interferes with endoplasmic reticulum (ER) function in remyelinating oligodendrocytes, the expression of ER stress markers was monitored in the corpus callosum of mice expressing IFN-γ. The study was performed using the transgenic mice described in Example 1.
The level of mRNA encoding ER stress associated genes binding immunoglobulin protein/78 KDa glucose regulated protein (BIP/GRP78) and the CAATT enhancer-binding protein homologous protein/growth and DNA damage protein 153 (CHOP/GADD153), was determined using real time PCR, as described in Example 1 in the corpus callosum of the cuprizone treated mice of Example 1. The probes, sense and antisense primers that were used were: […]
The level of phosphorylated eIF-2α, which inhibits nucleotide exchange on the eIF-2 complex and attenuates most protein synthesis, was analyzed by Western blot, and the expression was colocalized by immunostaining CC1 antibodies as described above. Western blot analysis was performed as follows. The corpus callosum from 3 mice was rinsed in ice cold phosphate-buffered saline (PBS) and pooled, and immediately homogenized in 5 volumes of Triton X-100 buffer (20 mM HEPES pH 7.5, 150 mM NaCl, 1% Triton X-100, 10% glycerol, 1 mM EDTA, 10 mM tetrasodium pyrophosphate, 100 mM NaF, 17.5 mM β-glycerophosphate, 10 mM phenylmethylsulfonyl fluoride, 15 μg/ml aprotonin, and 6 μg/ml pepstatin A) using a motorized homogenizer. After incubation on ice for 15 min, the extracts were cleared by centrifugation at 14,000 rpm twice for 30 min each. The protein content of each extract was determined by protein assay (Bio-Rad). The extracts (40 μg) were separated by sodium dodecyl sulfate-polyacrylamide gel electrophoresis and transferred to nitrocellulose. […] The following primary antibodies were used: anti-eIF-2α (1:500; Santa Cruz, Santa Cruz, Calif.), anti-p-eIF-2α (1:1000, Cell signaling Technology), anti-CHOP (1:500; Santa Cruz) and anti-actin (1:1000; Sigma, St Louis, Mo.).

[2] = tested on: CNS of 14-day-old double transgenic mice; assay: Ectopic expression of IFN-γ in the CNS during development (released from doxycycline at E14), PERK+/+ or PERK+/− background; type: in vivo
Excerpt: To study the effect of INF-γ on the myelination of oligodendrocytes during mouse development, transgenic mice that allow for temporally regulated delivery of IFN-γ to the CNS using the tetracycline (tet) controllable system (Lin, et al. (2004) J. Neurosci. 24: 10074-10083) were generated. To drive tTA expression in astrocytes, the transcriptional regulatory region of the glial fibrillary acidic protein (GFAP) gene was chosen (Brenner, et al. (1994) J. Neurosci. 14: 1030-1037). GFAP/tTA mice were mated with TRE/IFN-γ mice to produce animals hemizygous for both transgenes. When these mice are maintained on doxycycline (DOX+), expression of the IFN-γ transgene is repressed (FIG. 10A); when the double transgenic mice are released from doxycycline (DOX−) INF-γ is expressed. For the purpose of these experiments, mice received doxycycline up to day 14 of development (E14), at which time the experimental animals (DOX−) stopped receiving doxycycline, while the control animals (DOX+) were continuosly fed the dug. The mRNA for IFN-γ could be detected in the DOX− mice as early as 10 days after birth (data not shown).
Real time PCR analysis was performed to determine the levels of expression of INF-γ, MHC-1, BIP, CHOP, and caspase 12. The primers for the PCR reactions for BIP, CHP and caspase 12 are given in example 1. The sense and antisense primers for INF-γ were […] (SEQ ID NO: 39) and […] (SEQ ID NO: 40), respectively; and the sense and antisense primers for MHC-1 were MHC-I sense primer: ATTCCCCAAAGGCCCATGT (SEQ ID NO: 1); and MHC-I antisense primer: […] (SEQ ID NO: 2).
Western blot analysis was performed on the CNS of 14 day old mice to determine the expression of caspase-12 as described in Example 6.
Brain and spinal cord tissue were analyzed using immunohistochemical methods as follows. Anesthetized mice were perfused through the left cardiac ventricle with 4% paraformaldehyde in 0.1M PBS. The half-saggital brains and transcervical spinal cord were removed, postfixed with paraformaldehyde, cryopreserved in 30% sucrose, embedded in OCT and frozen on dry ice. Frozen sections were cut in a cryostat at a thickness of 10 μm. Coronal sections at the fornix region of the corpus callosum corresponding to Sidman sections 241-251 were selected for use, and all comparative analyses were restricted to midline corpus callosum (Sidman, et al. (1971) Atlas of the Mouse Brain and Spinal Cord (Harvard Univ. Press, Cambridge, Mass.). For immunohistochemistry, frozen sections were treated with −20° C. acetone, blocked with PBS containing 10% NGS and 0.1% Triton X-100 and incubated overnight with the primary antibody diluted in blocking solution. Appropriate fluorochrome- or enzyme-labeled secondary antibodies (Vector Laboratories, Burlingame, Calif.) were used for detection. An antibody against CC1 (APC7, 1:50; EMD Biosciences, Inc., La Jolla, Calif.) was used as a marker for mature oligodendrocytes. Antibody against MBP (1:1000; Stemberger Monoclonals, Lutherville, […].) was used to verify the degree of myelination. Antibody against active-caspase-3 (1:50, Cell signaling Technology, Beverly, Mass.) was used as a marker for apoptotic cells. Fluorescent stained sections were mounted with Vectashield mounting medium with DAPI (Vector Laboratories) and visualized with a Zeiss Axioplan fluorescence microscope. Images were captured using a Photometrics PXL CCD camera connected to an Apple Macintosh computer using the Open Lab software suite. Immunopositive cells were quantified by counting positive cells within the median of the corpus callosum, confined to an area of 0.04 mm^2. Only those cells with nuclei observable by DAPI staining were counted. Each MBP immunostaining slide was scored on a scale of zero to four. A score of zero indicates complete demyelination, and a score of four indicates normal myelination in the corpus callosum of adult mice. […]

[3] = corpus callosum of DOX− mice, Western blot
[4] = CNS, PND 14, DOX− released at E14, real-time PCR

In the case of interferon-γ [IFN-γ], the “level of CHOP protein” value [1, 3] is reported as “approximately 1.7 fold”, the “level of phosphorylated eIF-2α (p-eIF-2α)” value [1, 3] is reported as “approximately 1.8 fold” and the “level of mRNA for BIP and CHOP” value ([1]; corpus callosum, DOX− compared to control DOX+, real time PCR) is reported as “approximately 2 fold”. The caspase-12 expression ([2]; CNS, PND 14, DOX− released at E14) was “strongly enhanced”, the BIP expression [2, 4] was “approximately 1.6 times the control levels” and the CHOP expression [2, 4] was roughly 2 times the control levels. For the same substance, the “mice that experienced tonic seizures” value ([2]; E14 DOX− PERK+/−) was “approximately two-thirds”, the “decrease of oligodendrocyte numbers in the spinal cord” value ([2]; IFN-γ expressing mice on a PERK+/− background, 14-day-old, CC1) was “more than 50%” and the “unmyelinated axons in the spinal cord” value ([2]; PERK+/− mice that express IFN-γ in the CNS, 14-day-old) was 81%±14.9%. For the same substance, the “number of TUNEL positive oligodendrocytes in the cervical spinal cord, PERK+/− relative to wild-type background” value ([2]; released from doxycycline at E14) was 2.5 times, the “mice that died by post natal day (PND) 27” value ([2]; released from doxycycline at E14, PERK+/− background) was “more than 90%” and the survival ([2]; released from doxycycline at E14, wild-type background) was “normal survival”. The “unmyelinated axons in the spinal cord” value ([2]; wild-type background, released from doxycycline at E14) was 30%±12.9%.
